Common to all, as to assay type: in vivo
Experiment [1] deals with Myzus persicae. Nature of the experiment: slide-dip mortality test on aphids (Myzus persicae). The following applies: 24 h, read-out: Corrected mortality (%) Myzus persicae. As for the experimental part: (§1) Inhibitory activities of the steroidal piperidone derivatives listed in Tables 1 and 2 against Myzus persicae, Aphis citricola, Brevicoryne brassicae, and wheat aphids were determined through slide-dip method. Specific process: A specified amount of a compound to be tested was accurately weighed and dissolved with acetone as a solvent, and solutions with concentrations of 50 μg/mL and 75 μg/mL were each prepared with a 0.1% Tween-80 aqueous solution, allowed to stand at room temperature for 0.5 h until the sample was completely dissolved, and stored for later use. Then, adult aphids were fixed with double-sided tape on slides with a small brush. One end of the slide with the aphids was immersed in the test solutions for 5 seconds. The excess liquid was absorbed with absorbent paper, and the mortality rates were calculated 24 h after treatment. Acetamiprid was adopted as a positive control, and a 0.1% Tween-80 aqueous solution was adopted as a negative control. and the results are shown in Table 1.

In experiment [2] the test system is wheat aphids. Nature of the experiment: slide-dip mortality test on aphids (wheat aphids). The following applies: 24 h, read-out: Corrected mortality (%) Wheat aphid. As for the experimental part: as §1
Experiment [3] has as its system Brevicoryne brassicae. Nature of the experiment: slide-dip mortality test on aphids (Brevicoryne brassicae). As to conditions: 24 h, read-out: Corrected mortality (%) Brevicoryne brassicae. As for the experimental part: as §1
The subject of experiment [4] is Aphis citricola. Nature of the experiment: slide-dip mortality and LC50 test on aphids (Aphis citricola). As to conditions: for mortality at 50 µg/mL / mortality at 75 µg/mL: 24 h, read-out: Corrected mortality (%) Aphis citricola. As for the experimental part:
as §1

Experiment [5] concerns rice planthoppers. Nature of the experiment: foliar spray test against rice planthoppers. The following applies: 72 h, read-out: Corrected mortality (%) rice planthoppers. The protocol:
The toxic activities of the steroidal piperidone derivatives listed in Table 4 against B. tabaci were tested by a foliar spray method. Specific process: A specified amount of a compound to be tested was accurately weighed and dissolved in acetone, and solutions with concentrations of 50 μg/mL and 75 μg/mL were each prepared with a 0.1% of Tween 80 aqueous solution and stored for later use. The pesticide solution was sprayed on the back side of a cucumber leaf, the cucumber leaf was naturally dried, and B. tabaci to be tested were placed on the cucumber leaf. Thiamethoxam was used as a positive control, and acetone was used as a negative control. Several deaths were observed after 7 d of treatment, and the corrected mortality was calculated.
The toxic activities of the steroidal piperidone derivatives listed in Table 5 against rice planthoppers were tested by a foliar spray method. Imidacloprid was used as a positive control, and acetone was used as a negative control. Several deaths were observed after 3 d of treatment, and the corrected mortality was calculated.

Experiment [6] deals with Tetranychus truncatus. Nature of the experiment: slide dipping mortality test on mites. As to conditions: slide dipping, process as for aphids, read-out: Corrected mortality (%) Tetranychus truncatus; for mortality at 50 µg/mL: 50 μg/mL; for mortality at 75 µg/mL: 75 μg/mL. As for the experimental part:
as §1
The inhibitory activities of the steroidal piperidone derivatives listed in Table 3 on Tetranychus truncatus were tested through slide dipping.

≈ marks a conversion by molar mass, not a printed value.

Our source for the mortality and LC50 values is patent US11751567B2, “Steroidal piperidone derivative, synthesis method, and use thereof” (NORTHWEST A&F UNIVERSITY, priority 2021, dated 2023).

As for `C/C(=N\C#N)N(C)Cc1ccc(Cl)nc1` [Acetamiprid, reference compound], the mortality at 50 µg/mL is 94.3% in experiment [1], 95.5% in experiment [2], 94.4% in experiment [3] and 93.3% in experiment [4]. In addition, the mortality at 75 µg/mL in experiment [1], in experiment [2], in experiment [3] and in experiment [4] was 100% in each case. Further, in experiment [4] (read-out: LC50 of inhibitory activity against Aphis citricola), the LC50 was 9.95 µg/mL (≈ 44.7 µM).

Take `C[C@]12CC[C@H](O)CC1CC[C@@H]1[C@@H]2CC[C@@]2(C)[C@H]1CCC(=O)N2C(=O)c1ccccc1F` (stereo partly shown) [Compound (1)-1]: the mortality at 50 µg/mL in experiment [1] was found to be 53.4%; in experiment [2], 50%; in experiment [3] it was 42.7%; in experiment [4], 56.2%; in experiment [5], 42.3%. Besides, the mortality at 75 µg/mL in experiment [1] was 75.3%; in experiment [2], 70.3%; in experiment [3], 65.5%; in experiment [4], 78.4%; in experiment [5] it was 56.9%.

Regarding `C[C@]12CC[C@H](O)CC1CC[C@@H]1[C@@H]2CC[C@@]2(C)[C@H]1CCC(=O)N2C(=O)c1cccc(F)c1` (stereo partly shown) [Compound (1)-2], the mortality at 50 µg/mL in experiment [1] was determined as 26.1%; in experiment [2] it was 22.1%; in experiment [3] it was 30.3%; in experiment [4], 39.3%; in experiment [5] it was 52.1%. In addition, the mortality at 75 µg/mL in experiment [1] worked out at 55.1%; in experiment [2], 50.4%; in experiment [3], 54%; in experiment [4] it was 61.4%; in experiment [5], 60.3%.

Regarding `Cc1ccccc1C(=O)N1C(=O)CC[C@H]2[C@@H]3CCC4C[C@@H](O)CC[C@]4(C)[C@H]3CC[C@@]21C` (stereo partly shown) [Compound (1)-7], in experiment [5], the mortality at 50 µg/mL stood at 36.2% and the mortality at 75 µg/mL worked out at 45.8%.

With `Cc1cccc(C(=O)N2C(=O)CC[C@H]3[C@@H]4CCC5C[C@@H](O)CC[C@]5(C)[C@H]4CC[C@@]32C)c1` (stereo partly shown) [Compound (1)-8], in experiment [5], the mortality at 50 µg/mL turned out to be 38.4% and the mortality at 75 µg/mL worked out at 53.6%.

As to `C[C@]12CC[C@H](O)CC1CC[C@@H]1[C@@H]2CC[C@@]2(C)[C@H]1CCC(=O)N2C(=O)c1cccc(C(F)(F)F)c1` (stereo partly shown) [Compound (1)-11], the mortality at 50 µg/mL was 25% in experiment [1], 30.4% in experiment [2], 24.7% in experiment [3] and 25.8% in experiment [4]. Further, the mortality at 75 µg/mL in experiment [1] was found to be 52.8%; in experiment [2], 56.5%; in experiment [3] it was 50.6%; in experiment [4] it was 54.5%.

As to `C[C@]12CC[C@H](O)CC1CC[C@@H]1[C@@H]2CC[C@@]2(C)[C@H]1CCC(=O)N2C(=O)c1ccc(C(F)(F)F)cc1` (stereo partly shown) [Compound (1)-12], the mortality at 50 µg/mL is 30.7% in experiment [1], 24.8% in experiment [2], 29.2% in experiment [3] and 32.6% in experiment [4]. Moreover, the mortality at 75 µg/mL in experiment [1] was 57.3%; in experiment [2] it was 55.7%; in experiment [3], 57.5%; in experiment [4] it was 65.9%.

Regarding `C[C@]12CC[C@H](O)CC1=CC[C@@H]1[C@@H]2CC[C@@]2(C)[C@H]1CCC(=O)N2C(=O)c1ccccc1Br` [Compound (2)-5], in experiment [6], the mortality at 50 µg/mL stood at 43.5% and the mortality at 75 µg/mL is 69.6%.

As to `C[C@]12CC[C@H](O)CC1=CC[C@@H]1[C@@H]2CC[C@@]2(C)[C@H]1CCC(=O)N2C(=O)c1ccc([N+](=O)[O-])cc1` [Compound (2)-13], in experiment [6], the mortality at 50 µg/mL was found to be 33.2% and the mortality at 75 µg/mL worked out at 56.8%.

For the molecule `O=[N+]([O-])NC1=NCCN1Cc1ccc(Cl)nc1` [Imidacloprid, reference compound], in experiment [5], the mortality at 50 µg/mL worked out at 61.2% and the mortality at 75 µg/mL worked out at 82.3%.
